Results reported in patent US10149852B2, “Use of sodium channel blockers for the treatment of neuropathic pain developing as a consequence of chemotherapy” (priority 2006, dated 2018).
“And” between values parts separate entries of the source, which are not always exact repeats. Equal values may be shown once. “Also recorded” adds a separate entry of the source.

Experiments:
[1] = system: paclitaxel induced paw allodynia
[2] = system: paclitaxel-induced mechanical allodynia
[3] = system: paclitaxel induced paw hyperalgesia
[4] = system: paclitaxel induced orofacial allodynia
[5] = system: paclitaxel-induced cold allodynia
[6] = system: paclitaxel-induced thermal hyperalgesia
[7] = in vivo; cited from earlier work
[8] = design: species or system Human Subjects; settings: in vivo
[9] = system: paclitaxel-induced painful peripheral neuropathy; design: species or system CD-1 mice; settings: mouse, in vivo, sc
[10] = system: Chemotherapy Induced Neuropathic Pain (CINP); design: species or system Human Subjects; settings: in vivo
[11] = paclitaxel 1 mg/kg i.p. days 1, 3, 5, 7, rats
[12] = paclitaxel 2 mg/kg i.p. once daily 5 days

Compound: CC(=O)O[C@H]1C(=O)[C@@]2(C)[C@H]([C@H](OC(=O)c3ccccc3)[C@]3(O)C[C@H](OC(=O)[C@H](O)[C@@H](NC(=O)c4ccccc4)c4ccccc4)C(C)=C1C3(C)C)[C@]1(OC(C)=O)CO[C@@H]1C[C@@H]2O [paclitaxel, Paclitaxel, reference compound]
- mechanical threshold (paw) vs vehicle-treated group [1, 11]: significantly reduced
- induction of mechanical allodynia (threshold force, Von Frey test) ([2]; paclitaxel 2 mg/kg i.p. during 5 days, day 10): induced mechanical allodynia
- animals showing a reduction of the mechanical threshold ([2]; paclitaxel-treated mice): 96%
- thermal latency vs vehicle-treated group [3, 11]: significantly reduced
- mechanical threshold (orofacial) vs vehicle-treated group [4, 11]: significantly reduced
- animals with increased time licking/biting (paclitaxel-responder animals) [5, 12]: 67%
- time of maximal cold allodynia after the first injection [5, 12]: 10 to 14 days
- time of maximal thermal hyperalgesia after the first injection [6, 12]: 7 days
- paw withdrawal latency in the plantar test vs pre-treatment day ([6]; paclitaxel 2 mg/kg i.p. once daily 5 days, all post-treatment days): significantly reduced
- animals that did not develop thermal hyperalgesia on day 7 ([6]; paclitaxel-treated mice): Around 9%

Compound: Octahydro-12-(Hydroxymethyl)-2-imino-5,9,7,10a-dimethano-10aH-[1,3]dioxocino[6,5-d]pyrimidine-4,7,10,11,12-pentol [TTX]
- effect of a single dose on allodynia in the sciatic territory ([1]; rat, in vivo, sc): partial but significant decrease
- prevention of development of allodynia in the paw ([1]; rat, in vivo, sc): able to prevent the development
- safety profile of the doses [7]: acceptable safety profile
- Nervous system disorders, number of subjects [8]: 13 and 16 and 17 and 20
- Number of Subjects with at least 1 AE [8]: 21 and 22 and 20 and 24
- Paresthesia, number of subjects [8]: 5 and 7
- grade 4 AEs [8]: no grade 4 AEs
- number of grade 3 AEs [8]: four and seven
- number of patients with serious adverse effects (SAEs) [8]: Three
- number of subjects with grade 3 AE [8]: Four
- relation of the SAEs to TTX [8]: two unrelated and one unlikely related
- severity of most AEs [8]: grade 1 or 2; also recorded: mild or moderate
- severity of nervous system AEs [8]: grade 1 or 2 save for one event of grade 3 paresthesia
- Hypesthesia oral, number of subjects ([8]; po): 5 and 7 and 6 and 10
- Oral paresthesia (most common AE), number of patients of 125 ([8]; po): 37
- Oral paresthesia (most common AE), percent ([8]; po): 29.6%
- dose relation of Oral Paresthesia ([8]; po): increasing trend in relation to increasing dose
- oral hypesthesia, number of patients of 125 ([8]; po): 31
- oral hypesthesia, percent ([8]; po): 24.8%
- analgesic effects in the model of neuropathic pain [9]: clear analgesic effects
- effect of a single dose on paw hyperalgesia ([3]; rat, in vivo, sc): did not significantly reduce
- prevention of development of hyperalgesia in the paw ([3]; rat, in vivo, sc): able to prevent the development
- effect of a single dose on allodynia in the trigeminal territory ([4]; rat, in vivo, sc): partial but significant decrease
- prevention of development of allodynia in the orofacial region ([4]; rat, in vivo, sc): able to prevent the development
- Responders, 30% reduction in average NPRS score from baseline to any 10 consecutive days: No, number of subjects [10]: 17 (68.0%) and 14 (58.3%) and 15 (60.0%) and 11 (42.3%)
- Responders, 30% reduction in average NPRS score from baseline to any 10 consecutive days: No, percent [10]: 17 (68.0%) and 14 (58.3%) and 15 (60.0%) and 11 (42.3%)
- Responders, 30% reduction in average NPRS score from baseline to any week: No, number of subjects [10]: 16 (64.0%) and 13 (54.2%) and 15 (60.0%) and 11 (42.3%)
- Responders, 30% reduction in average NPRS score from baseline to any week: No, percent [10]: 16 (64.0%) and 13 (54.2%) and 15 (60.0%) and 11 (42.3%)
- Responders, 30% reduction in average NPRS score from baseline to any week: Yes, number of subjects [10]: 9 (36.0%) and 11 (45.8%) and 10 (40.0%) and 15 (57.7%)
- effect on expression of paclitaxel-induced cold allodynia ([5]; mouse, in vivo): inhibited the expression
- days with statistically significant difference vs paclitaxel+saline, duration of licking/biting ([5]; mouse, in vivo, sc): days 10 and 14
- days with statistically significant difference vs paclitaxel+saline, frequency of licking/biting ([5]; mouse, in vivo, sc): days 7, 10 and 14
- effect on development of paclitaxel-induced cold allodynia (two variables) ([5]; mouse, in vivo, sc): did not significantly affect
- effect significantly different from saline, frequency of licking/biting ([5]; mouse, in vivo, sc): only in the animals treated with TTX 6 μg/kg
- time after injection with effect significantly different from saline, duration of licking/biting ([5]; mouse, in vivo, sc): 1 h
